Legend:
[1] = system: motoneurons of the facial nucleus; experiment: Survival of the motoneurons after cutting of the facial nerve in 4-day-old rats; assay type: in vivo, rat; conditions: 7 d treatment, i.p. route
Method: Test of Survival of the Motoneurons After Cutting of the Facial Nerve in 4-day-old Rats
After lesioning of the facial nerve in immature rats, the motoneurons of the facial nucleus undergo neuronal death by apoptosis. The evaluation of neuronal survival is carried out using histological and neuronal counting methods.
4-Day-old immature rats are anaesthetized with pentobarbital (3 mg/kg by the i.p. route). The right facial nerve is exposed and cut, where it leaves the stylomastoid foramen. After regaining consciousness, the young rats are returned to their mothers and treated, for 7 d, by one or two daily administrations, by the oral or intraperitoneal route, at doses ranging from 1 to 10 mg/kg. 7 d after the lesioning, the animals are decapitated and the brains frozen in isopentane at −40° C. The facial nucleus is cut using a cryostat, into 10 μm sections, in its entirety. The motoneurons are stained with cresyl violet and counted with the aid of the Histo™ software (Biocom™).

[2] = system: hearts isolated from rabbits; experiment: Cardioprotective effects on isolated rabbit hearts subjected to regional ischaemia and reinfusion; design: left ventricular pressure, percentage of preischaemic recovery / contracture during reinfusion / maximum and minimum dP/dt values and double frequency-pressure product: dose or concentration left out as unconfirmed
Method: Study of the Cardioprotective Effects
The cardioprotective effects were studied on hearts isolated from rabbits subjected to a regional ischaemia and to a reinfusion. The size of infarction as well as the recovery of the contractile function upon reinfusion were measured.
New Zealand rabbits (2.3 to 2.5 kg, ESD France) are anaesthetized with a ketamine-xylasine mixture and heparinized. The heart is removed and rapidly infused by the retrograde aortic route at a pressure of 75 mmHg with a Krebs Henselheit-type solution. A balloon is introduced into the left ventricle and a telediastolic pressure of 5 mmHg is applied. After a stabilizing period of 20 min, the compound to be studied (1 mM) or the vehicle is added to the infusion solution 15 min before the ischaemia and during the entire duration of the experiment. The regional ischaemia is created by complete ligation of the left coronary artery for 30 min, the heart then being reinfused for 2 h.
The ventricular pressure, heart rate and coronary output parameters are monitored during the whole experiment.
After the reinfusion, the coronary artery is again occluded and China ink is infused in order to delimit the area at risk. Transverse sections are then prepared and incubated in a 1% triphenyltetrazolium solution so as to measure the size of the infarction. The quantification of the necrosed area, expressed as % of the area at risk, is obtained by means of image-analysing software.

[3] = system: kidneys (renal ischaemia-reinfusion); experiment: Renoprotective effects, renal artery occlusion-reinfusion in rats; assay type: in vivo, rat; conditions: 3 mg/kg i.p. 60 min before the occlusion
Method: Study of the Renoprotective Effects
The experiment is carried out on Sprague-Dawley male rats (Charles River France) of 270 to 330 g. The animals are anaesthetized with pentobarbital (60 mg/kg i.p.), intubated and artificially ventilated, their temperature is maintained between 37 and 38° C.
A 3 cm laparotomy is performed on the animal in dorsal decubitus, the right and left renal arteries are exposed and occluded for 30 min, and then the kidneys are reinfused under visual monitoring and the incision is closed. The serum creatinine and urea nitrogen levels are determined from blood samples collected in the orbital sinus, at D0 (before anaesthesia), and then at D1, D2, D3, D4, D8 (after 1 occlusion-reinfusion).
The compound to be studied, or its vehicle (Tween 80 at 2%) is administered at the dose of 3 mg/kg by the i.p. route 60 min before the occlusion.

CN(C)C(=O)Cc1nn(-c2ccccc2)c(=O)c2c1c1ccc(Cl)cc1n2C [Compound No. 1, 7-Chloro-N,N,5-trimethyl-4-oxo-3-phenyl-3,5-dihydro-4H-pyridazino[4,5-b]indole-1-acetamide]
increase in neuronal survival [1]: 31% | contracture during reinfusion [2]: reduces the contracture | left ventricular pressure, percentage of preischaemic recovery ([2]; after 2 h of reinfusion): 65% | size of the infarction (necrosed area, expressed as % of the area at risk) ([2]; compound 1 mM in infusion solution, 30 min ischaemia, 2 h reinfusion): 22±3.3 % of the area at risk | reduction in the size of the infarction ([2]; compound 1 mM in infusion solution, 30 min ischaemia, 2 h reinfusion, vs controls, p<0.01): 47% | maximum and minimum dP/dt values and double frequency-pressure product ([2]; during reinfusion): significantly restores | reduction of creatininaemia compared with the vehicle ([3]; at D3): 56% | reduction of uraemia compared with the vehicle ([3]; at D3): 49% | mortality in the animals ([3]; dead/total animals): 1/12

Reference: patent publication US6395729B1, “Use of pyridazino[4,5-b]indole-1-acetamide derivatives for preparing medicines for treating diseases related to the dysfunction of peripheral benzodiazepin receptors” (Sanofi-Synthelabo, priority 1999, dated 2002)
